Reference: patent US12553037B2, “Engineered class 2, type V repressor systems” (Scribe Therapeutics Inc., priority 2021, dated 2026)

Tested on: B2M gene
Test: B2M reactivation by 5-azadC in cells silenced by ELXR5-ZIM3 or CasX 491 (Example 12)
Conditions: 0 μM to 20 μM 5-azadC; B2M-targeting gRNA

Nc1ncn([C@H]2C[C@H](O)[C@@H](CO)O2)c(=O)n1 [5-azadC, 5-aza-2′-deoxycytidine, reference compound]
reactivation of the B2M gene upon 5-azadC treatment: reactivation of the B2M gene
